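Interpolation was linear, between the two tested concentrations surrounding the appropriate level; five concentrations were tested over 48 hours in 96-well plates. The concentration for 50% growth inhibition is given as GI50. At the TGI there is no net growth.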
Assays:
Assay in all cases: NCI anticancer screen, dose series, 48 h
[1] = tested on: HOP-92 NSCLC
[2] = tested on: TK-10 renal
[3] = tested on: HOP-62 NSCLC
[4] = tested on: OVCAR-8 ovarian
[5] = tested on: UO-31 renal
[6] = tested on: SW-620 colon
[7] = tested on: MALME-3M melanoma
[8] = tested on: ACHN renal
[9] = tested on: K-562 leukemia
[10] = tested on: NCI/ADR-RES ovarian

SMILES | TGI [1] | TGI [2] | TGI [3] | TGI [4] | TGI [5] | TGI [6] | TGI [7] | TGI [8] | TGI [9] | TGI [10] | GI50 [1] | GI50 [2] | GI50 [3] | GI50 [4] | GI50 [5] | GI50 [6] | GI50 [7] | GI50 [8] | GI50 [9] | GI50 [10]
COC(=O)c1cccc2cccc(C(=O)Nc3ccc(Cl)cc3)c12 | > 100 µM | > 100 µM | > 100 µM | > 100 µM | > 100 µM | > 66.8 µM | > 100 µM | > 100 µM | > 33 µM | – | – | – | – | – | – | – | – | – | – | –
O=S1(=O)OCCOS(=O)(=O)C1Cl | > 100 µM | > 100 µM | > 100 µM | > 100 µM | > 100 µM | > 100 µM | > 100 µM | – | > 100 µM | – | – | – | – | – | – | – | – | – | – | –
CC(C(=O)n1c2ccccc2c2ccccc21)N(c1ccccc1)c1ccccc1 (configuration not stated) | – | 34.5 µM | 32 µM | 37.7 µM | 35.1 µM | 36 µM | 28.5 µM | 30.7 µM | 40.7 µM | – | – | – | – | – | – | – | – | – | – | –
OCCNCCOc1ccc(/C(=C(/Cl)c2ccccc2)c2ccccc2)cc1 | – | 15.9 µM | 31.4 µM | 28 µM | 22.2 µM | 17.3 µM | – | – | 11 µM | – | – | – | – | – | – | – | – | – | – | –
COc1cc(C2C(C(=O)Nc3cc(F)c(F)cc3F)=C(C)NC(C)=C2C(=O)Nc2cc(F)c(F)cc2F)ccc1O | 18.4 µM | 87.9 µM | 97.9 µM | 96.7 µM | 35.5 µM | > 100 µM | 74.5 µM | 65.3 µM | 49.6 µM | – | – | – | – | – | – | – | – | – | – | –
CC1=CC(=O)C(C(O)(C(F)(F)F)C(F)(F)F)C(C)(C)C1 (configuration not stated) | – | > 10 µM | > 10 µM | > 10 µM | > 10 µM | > 10 µM | > 10 µM | > 10 µM | > 10 µM | > 10 µM | – | – | – | – | – | – | – | – | – | –
Cc1cc(C(C)(C)C)cc(Cc2cc(C(C)(C)C)cc(Cc3cc(C(C)(C)C)cc(C)c3O)c2O)c1O | 10.5 µM | 30 µM | 28.9 µM | 17.6 µM | 25.9 µM | 17.4 µM | 22.5 µM | – | 16.4 µM | – | – | – | – | – | – | – | – | – | – | –
CC(C)C1=C2CCC3(C)C(CCC4C5C6OCC5(CCC6(C)C)CCC43C)C2(C)CC1 (configuration not stated) | 40.8 µM | 31 µM | 38.9 µM | 34.4 µM | 33.8 µM | 50.8 µM | 38.6 µM | 35.9 µM | – | 39.6 µM | – | – | – | – | – | – | – | – | – | –
[F][Sn]([F])([c]1ccccc1)[c]1ccccc1 | 3.13 µM | 3.44 µM | 4.85 µM | 4.88 µM | 3.34 µM | 3.02 µM | 3.33 µM | 2.97 µM | 4.96 µM | – | 1.48 µM | 1.89 µM | 2.32 µM | 2.05 µM | 1.92 µM | 1.36 µM | 1.8 µM | 1.6 µM | 0.702 µM | –
Cc1cccc(C(C)C)c1NC(=O)C(=O)C(C(=O)c1ccccc1F)C1OC(=O)c2ccccc21 (configuration not stated) | 48.2 µM | 91.1 µM | 35.8 µM | 59.7 µM | 38.3 µM | 58.9 µM | 26.9 µM | > 100 µM | > 100 µM | – | – | – | – | – | – | – | – | – | – | –
Cc1ccc(S(=O)(=O)NC(=O)NC2=NC(C)(C)N(c3ccc(Cl)c(Cl)c3)C(N)=N2)cc1 | – | > 100 µM | > 100 µM | > 100 µM | > 100 µM | > 100 µM | > 100 µM | > 100 µM | > 100 µM | > 100 µM | – | – | – | – | – | – | – | – | – | –
CC1=C(C(=O)Nc2ccccc2)C(c2ccc(C3C(C(=O)Nc4ccccc4)=C(C)NC(C)=C3C(=O)Nc3ccccc3)cc2)C(C(=O)Nc2ccccc2)=C(C)N1 | 9.78 µM | 18.3 µM | 10.6 µM | 11.2 µM | 23.1 µM | 5.56 µM | 4.33 µM | 4.2 µM | > 53 µM | – | – | – | – | – | – | – | – | – | – | –
CC(=O)OCCOCNC(=S)N/N=C/c1ccc(Br)s1 | > 100 µM | > 100 µM | > 100 µM | > 100 µM | > 100 µM | > 100 µM | > 100 µM | > 100 µM | > 100 µM | – | – | – | – | – | – | – | – | – | – | –
COc1cc(C(=O)C/C(CCC(=O)Nc2ccc(Cl)cc2Cl)=N/NC(=O)C(=O)NN)ccc1O | > 100 µM | > 100 µM | > 100 µM | > 100 µM | > 100 µM | > 100 µM | > 100 µM | > 100 µM | > 100 µM | – | – | – | – | – | – | – | – | – | – | –
CC1=C(c2cc(C(=O)Nc3ccc(Cl)cc3)nc(=S)[nH]2)Sc2ccccc2N1 | > 100 µM | > 100 µM | > 100 µM | > 100 µM | > 100 µM | > 100 µM | > 100 µM | > 100 µM | > 100 µM | – | – | – | – | – | – | – | – | – | – | –
c1ccc(CSc2nc3ccccc3nc2-c2cccs2)cc1 | > 100 µM | > 100 µM | > 100 µM | > 100 µM | > 100 µM | – | > 100 µM | > 100 µM | > 100 µM | – | – | – | – | – | – | – | – | – | – | –
N.N.NCCCCCCCCCN.O=C([O-])CC(=O)[O-].O=C([O-])CC(=O)[O-].[Pt+4].[Pt+4] | > 100 µM | > 100 µM | > 100 µM | > 100 µM | > 100 µM | > 100 µM | 73.3 µM | > 100 µM | > 100 µM | – | > 100 µM | > 100 µM | > 100 µM | > 100 µM | > 100 µM | 66.4 µM | 28.9 µM | 90.3 µM | > 100 µM | –
CCOc1ccccc1NC(=O)C(=O)Cc1nc2ccccc2s1 | > 100 µM | > 100 µM | > 100 µM | > 100 µM | > 100 µM | > 100 µM | > 100 µM | > 100 µM | – | – | – | – | – | – | – | – | – | – | – | –
O=C1C(=O)N(c2cc(Cl)ccc2Cl)C(=O)C(=O)C1c1nc2ccccc2o1 | > 100 µM | > 100 µM | > 100 µM | > 100 µM | > 100 µM | > 100 µM | > 100 µM | > 100 µM | > 100 µM | – | – | – | – | – | – | – | – | – | – | –
Clc1cc(Cl)cc(Nc2ccc3cc(OCCCN4CCOCC4)ccc3n2)c1 | 5.01 µM | 8.21 µM | – | > 100 µM | – | – | – | – | 4.42 µM | > 100 µM | 1.63 µM | 2.88 µM | – | 4.36 µM | – | – | – | – | 1.58 µM | 2.96 µM
CC(C)(C)OC(=O)N1N=NC2C1C1CC(OCc3ccccc3)(OCc3ccccc3)C2O1 (configuration not stated) | > 100 µM | – | > 100 µM | – | > 100 µM | 47.6 µM | > 100 µM | > 100 µM | 63.6 µM | – | – | – | – | – | – | – | – | – | – | –
CC1CN1c1c(C(=O)/C=C/c2ccc(Cl)cc2)c(-c2ccccc2)nn(C)c1=O (configuration not stated) | > 10 µM | 8.94 µM | 7.66 µM | 5.67 µM | > 10 µM | 6.81 µM | > 10 µM | 5.27 µM | 8.8 µM | – | – | – | – | – | – | – | – | – | – | –

— PubChem BioAssay (NCI)
